Source: paper PMC6979384, “Characterization of the plant homeodomain (PHD) reader family for their histone tail interactions” (Epigenetics & Chromatin, 2020)

Columns and labels:
Experiment in all cases: Histone peptide microarray
Type in all cases: binding, human
RAG2 = details: sheet "Array Heatmap"; GST-tagged RAG2; arrays performed twice, total replicate number n = 4
Method in brief: (§1)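 Purified PHD finger domains fused to GST are screened against 293 synthetic histone peptides bearing one or several post-translational modifications. The protein is used at 0.5 μM, and the signal from four replicate arrays is averaged, with standard deviation given.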

ING2 = details: sheet "Array Heatmap"; GST-tagged ING2; arrays performed twice, total replicate number n = 4
Method in brief: as §1

PHF21A = details: sheet "Array Heatmap"; GST-tagged PHF21A; arrays performed twice, total replicate number n = 4
Method in brief: as §1

ING5 = details: sheet "Array Heatmap"; GST-tagged ING5; arrays performed twice, total replicate number n = 4
Method in brief: as §1

PHF2 = details: sheet "Array Heatmap"; GST-tagged PHF2; arrays performed twice, total replicate number n = 4
Method in brief: as §1

KDM5B (3) = details: sheet "Array Heatmap"; GST-tagged KDM5B (3); arrays performed twice, total replicate number n = 4
Method in brief: as §1

KDM7A = details: sheet "Array Heatmap"; GST-tagged KDM7A; arrays performed twice, total replicate number n = 4
Method in brief: as §1

KDM5B (1) = details: sheet "Array Heatmap"; GST-tagged KDM5B (1); arrays performed twice, total replicate number n = 4
Method in brief: as §1

MORC3 (CW) = details: sheet "Array Heatmap"; GST-tagged MORC3 (CW); arrays performed twice, total replicate number n = 4
Method in brief: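 A peptide microarray holding 293 synthetic histone peptides with individual or combinatorial modifications was probed with each GST-PHD protein at 0.5 μM. Values represent mean intensity (±SD) from four replicates.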

DIDO1 = details: sheet "Array Heatmap"; GST-tagged DIDO1; arrays performed twice, total replicate number n = 4
Method in brief: as §1

SP140L = details: sheet "Array Heatmap"; GST-tagged SP140L; arrays performed twice, total replicate number n = 4
Method in brief: as §1

CHD5 (PPCC) = details: sheet "Array Heatmap"; GST-tagged CHD5 (PPCC); arrays performed twice, total replicate number n = 4
Method in brief: as §1

KDM5A (1) = details: sheet "Array Heatmap"; GST-tagged KDM5A (1); arrays performed twice, total replicate number n = 4
Method in brief: as §1

PHRF1 (RP) = details: sheet "Array Heatmap"; GST-tagged PHRF1 (RP); arrays performed twice, total replicate number n = 4
Method in brief: as §1

CHD5 (PCC) = details: sheet "Array Heatmap"; GST-tagged CHD5 (PCC); arrays performed twice, total replicate number n = 4
Method in brief: as §1

ING4 = details: sheet "Array Heatmap"; GST-tagged ING4; arrays performed twice, total replicate number n = 4
Method in brief: as §1

PHF23 = details: sheet "Array Heatmap"; GST-tagged PHF23; arrays performed twice, total replicate number n = 4
Method in brief: as §1

KDM4C (TTP) = details: sheet "Array Heatmap"; GST-tagged KDM4C (TTP); arrays performed twice, total replicate number n = 4
Method in brief: as §1

CHD4 (PPCC) = details: sheet "Array Heatmap"; GST-tagged CHD4 (PPCC); arrays performed twice, total replicate number n = 4
Method in brief: as §1

DPF2 (PPC2W2) = details: sheet "Array Heatmap"; GST-tagged DPF2 (PPC2W2); arrays performed twice, total replicate number n = 4
Method in brief: as §1

TRIM66 (PB) = details: sheet "Array Heatmap"; GST-tagged TRIM66 (PB); arrays performed twice, total replicate number n = 4
Method in brief: as §1

BPTF (PB) = details: sheet "Array Heatmap"; GST-tagged BPTF (PB); arrays performed twice, total replicate number n = 4
Method in brief: as §1

AIRE (PP) = details: sheet "Array Heatmap"; GST-tagged AIRE (PP); arrays performed twice, total replicate number n = 4
Method in brief: as §1

PHF8 = details: sheet "Array Heatmap"; GST-tagged PHF8; arrays performed twice, total replicate number n = 4
Method in brief: as §1

KDM5A (3) = details: sheet "Array Heatmap"; GST-tagged KDM5A (3); arrays performed twice, total replicate number n = 4
Method in brief: as §1

PHF13 = details: sheet "Array Heatmap"; GST-tagged PHF13; arrays performed twice, total replicate number n = 4
Method in brief: as §1

MLL5 = details: sheet "Array Heatmap"; GST-tagged MLL5; arrays performed twice, total replicate number n = 4
Method in brief: as §1

TAF3 = details: sheet "Array Heatmap"; GST-tagged TAF3; arrays performed twice, total replicate number n = 4
Method in brief: as §1

BAZ2B = details: sheet "Array Heatmap"; GST-tagged BAZ2B; arrays performed twice, total replicate number n = 4
Method in brief: as §1

ING1 = details: sheet "Array Heatmap"; GST-tagged ING1; arrays performed twice, total replicate number n = 4
Method in brief: as §1

ING3 = details: sheet "Array Heatmap"; GST-tagged ING3; arrays performed twice, total replicate number n = 4
Method in brief: as §1

Substance	Array Heatmap signal, RAG2 (RAG2)	Array Heatmap signal, ING2 (ING2)	Array Heatmap signal, PHF21A (PHF21A)	Array Heatmap signal, ING5 (ING5)	Array Heatmap signal, PHF2 (PHF2)	Array Heatmap signal, KDM5B (3) (KDM5B (3))	Array Heatmap signal, KDM7A (KDM7A)	Array Heatmap signal, KDM5B (1) (KDM5B (1))	Array Heatmap signal, MORC3 (CW) (MORC3 (CW))	Array Heatmap signal, DIDO1 (DIDO1)	Array Heatmap signal, SP140L (SP140L)	Array Heatmap signal, CHD5 (PPCC) (CHD5 (PPCC))	Array Heatmap signal, KDM5A (1) (KDM5A (1))	Array Heatmap signal, PHRF1 (RP) (PHRF1 (RP))	Array Heatmap signal, CHD5 (PCC) (CHD5 (PCC))	Array Heatmap signal, ING4 (ING4)	Array Heatmap signal, PHF23 (PHF23)	Array Heatmap signal, KDM4C (TTP) (KDM4C (TTP))	Array Heatmap signal, CHD4 (PPCC) (CHD4 (PPCC))	Array Heatmap signal, DPF2 (PPC2W2) (DPF2 (PPC2W2))	further results
H3.3K27me3 + S28p: H3.3 15-34	0.2001	0.582	0.4021	0.2601	0.4942	0.357	0.2454	0.5567	0.3155	0.6255	0.3164	0.4194	0.3549	0.3794	0.7455	0.3661	0.4498	0.35	0.5244	0.5839	Array Heatmap signal, TRIM66 (PB) (TRIM66 (PB)): 0.52; Array Heatmap signal, BPTF (PB) (BPTF (PB)): 0.288; Array Heatmap signal, AIRE (PP) (AIRE (PP)): 0.3112; Array Heatmap signal, PHF8 (PHF8): 0.2831; Array Heatmap signal, KDM5A (3) (KDM5A (3)): 0.3655; Array Heatmap signal, PHF13 (PHF13): 0.4998; Array Heatmap signal, MLL5 (MLL5): 0.4825; Array Heatmap signal, TAF3 (TAF3): 0.2035; Array Heatmap signal, BAZ2B (BAZ2B): 0.3578; Array Heatmap signal, ING1 (ING1): 0.4657; Array Heatmap signal, ING3 (ING3): 0.4009
H3.3K27me3: H3.3 15-34 [Peptide H3.3K27me3]	0.2705	0.6109	0.5192	0.4224	0.5285	0.5372	0.3849	0.6871	0.4234	0.7249	0.3923	0.6383	0.5261	0.5177	0.8198	0.5176	0.6091	0.5632	0.5987	0.7311	Array Heatmap signal, TRIM66 (PB) (TRIM66 (PB)): 0.6617; Array Heatmap signal, BPTF (PB) (BPTF (PB)): 0.4048; Array Heatmap signal, AIRE (PP) (AIRE (PP)): 0.536; Array Heatmap signal, PHF8 (PHF8): 0.4126; Array Heatmap signal, KDM5A (3) (KDM5A (3)): 0.4949; Array Heatmap signal, PHF13 (PHF13): 0.7006; Array Heatmap signal, MLL5 (MLL5): 0.5722; Array Heatmap signal, TAF3 (TAF3): 0.2913; Array Heatmap signal, BAZ2B (BAZ2B): 0.5914; Array Heatmap signal, ING1 (ING1): 0.5843; Array Heatmap signal, ING3 (ING3): 0.5349
